We go through ten compounds from patent US6335346B1 (MACEF, priority 1999, dated 2002).

For assay [1], the system named is chicks of chair label JA657 strain. In words: Hypnotic and sedative activities in chicks (alternate lighting, test between 2.00 pm and 3.00 pm). Particulars: for ST (sleeping time) / Sedation time (after waking up, Stage 2) / FAT (falling-asleep time): IM; for FAT (falling-asleep time): to the nearest minute.
For assay [2], the system named is Beagle dogs. Description: Hypnotic activity in Beagle dogs (polygraphic measurement of the conscious and sleeping states). Format: in vivo, dog. Particulars: for Mean duration of the state of consciousness: Consciousness / Mean duration of the state of consciousness: Drowsiness / Mean duration: P.S. (paradoxal sleep) / Mean duration: Slow-wave sleep S1 + S2 / Mean duration: Total sleep / Mean latency time: Drowsiness / Mean latency time: P.S. (paradoxal sleep) / Mean latency time: Slow-wave sleep S1: 7 Beagle dogs, IV single bolus; for Mean duration of the state of consciousness: Consciousness / Mean duration of the state of consciousness: Drowsiness / Mean duration: P.S. (paradoxal sleep) / Mean duration: Slow-wave sleep S1 + S2 / Mean duration: Total sleep: 150 min recording; for Hypnotic power (in words): Beagle dogs, IV, sleep with high proportion of slow waves, consciousness reduced, latencies reduced. The protocol: During each test, the dogs are taken to a recording room in which they are connected to a Schwarzer ED 24 polygraph driven by Brainlab® for Windows® by means of a flexible cable. The dog is then placed in a 0.70×1×0.8 m metal cage in which it stays for 150 minutes.
The test products and the placebo were administered intravenously as a single bolus into the anterior median vein. The recordings are noted in periods of 30 seconds following the five states of vigilance defined by Shelton et al.:
deep slow-wave sleep, and
by examining the amplitude and frequency of the 2 frontal EEG plots (frontal), the EOG plots (bilateral) and the EMG plots (neck muscles) as follows:
Conscious: The dogs may be standing, sitting or lying down, or moving between these positions. Their eyes are open. This state includes all the episodes of multiple voltage and frequency with muscular activity.
Drowsy: The dogs are lying down with the eyes closed for most of the time. The EEG plots show slow-wave cycles (5-7 Hz) without the appearance of spindles. Large-amplitude synchronous slow waves (4-7 Hz) appear on a background of rapid activity. The EMG tends to be reduced compared with the conscious state.
Light sleep (SL1 or S1): The dogs are lying down in the stretched ventral position or, usually, in an incomplete circle. The relaxation is total. The EEG plots are characterized by K complexes and/or spindles. The amplitude increases.
Deep sleep (SL2 or S2): The dogs are lying down, with relaxed muscles. They remain without reaction to moderate stimulations (by sound). The slow delta waves (<4 Hz) with an amplitude of at least 70 μV constitute at least 20% of a period of 30 seconds.
Paradoxal sleep (PS): The dogs are lying down with the eyes closed and occasionally display rapid contractions of the eyelids and/or myoclonia, in particular of the labial extensor muscles. The EEG plots are of low voltage and varied frequencies. The EOG plots show rapid contractions. The EMG plot is of low amplitude, with the exception of the short-lived clonus. A period is classified as paradoxal sleep only if the preceding period is a period of sleep. The end of a period of paradoxal sleep is determined by the appearance of K complexes or spindles, or by the appearance of EMG activity.
The test compounds are administered intravenously by means of a vehicle having the composition: 50/50 (V/V) PEG-400/water for injectable preparations, as a single bolus of 10 ml per 12 kg of live weight.
The placebo consists of the intravenous administration of the vehicle alone, having the composition: 50/50 (V/V) PEG-400/water for injectable preparations, as a single bolus of 10 ml per 12 kg of live weight.
The distribution of the observation time spent in each of the stages of consciousness and sleep, as well as the latency times for onset of the first stages of each type of sleep, are given in Table I.

[3] abbreviates: 0.5 μmol/100 g, batch means of 3 chicks, limit values if >2 batches.
The mark [4] stands for this setting: 1 μmol/100 g, batch means of 3 chicks, limit values if >2 batches.
The mark [5] stands for this setting: 2 μmol/100 g, batch means of 3 chicks, limit values if >2 batches.

With `COc1ccc2[nH]c3c(c2c1)CCN=C3C` [10-METHOXYHARMALAN, 10-methoxy harmalan], in assay [1] (1.4 μmol/100 g (3 mg/kg)), the “ST (sleeping time)” value worked out at 0 and the “Sedation time (after waking up, Stage 2)” value is listed as 0.
In the case of `CN1C(=O)CN=C(c2ccccc2)c2cc(Cl)ccc21` [DIAZEPAM, diazepam], in assay [1] (setting [3]), the “ST (sleeping time)” value is 10-50 and the “FAT (falling-asleep time)” value is given as 3-6. In assay [1] (setting [4]), the “ST (sleeping time)” value is listed as 24-70; the “Sedation time (after waking up, Stage 2)” value is 17-20; the “FAT (falling-asleep time)” value is on record as 2-7. Further, in assay [1] (setting [5]), the “ST (sleeping time)” value was 81-100; the “Sedation time (after waking up, Stage 2)” value is 14-15; the “FAT (falling-asleep time)” value is on record as 2-5.
As to `C=C1c2[nH]c3ccc(OC)cc3c(=O)c2CN1C(C)=O` [Example 1, 2-Acetyl-7-methoxy-3-methylene-9-oxo-1,3,4,9-tetrahydropyrrolo[3,4-b]quinoline], in assay [1] (setting [5]), the “ST (sleeping time)” value was 30; the “Sedation time (after waking up, Stage 2)” value is recorded as 35; the “FAT (falling-asleep time)” value was found to be 10.5.
`CCC1=C2c3[nH]c4ccc(OC)cc4c(=O)c3CN2C(=O)CC1` [Example 4]: in assay [2] (1.5 μmol/kg), the “Mean duration of the state of consciousness: Consciousness” value was 115.4 min, the “Mean duration of the state of consciousness: Drowsiness” value was determined as 15.9 min, the “Mean duration: P.S. (paradoxal sleep)” value worked out at 2.4 min and the “Mean duration: Slow-wave sleep S1 + S2” value turned out to be 16.3 min. For the same compound, in assay [2] (1.5 μmol/kg), the “Mean duration: Total sleep” value came out at 34.6 min, the “Mean latency time: Drowsiness” value came to 63.8 min, the “Mean latency time: P.S. (paradoxal sleep)” value was determined as 114.8 min and the “Mean latency time: Slow-wave sleep S1” value came to 84.8 min. In assay [2], the “Hypnotic power (in words)” value is recorded as “marked hypnotic power”. In assay [1] (setting [4]), the “ST (sleeping time)” value amounted to 30; the “Sedation time (after waking up, Stage 2)” value is listed as 47; the “FAT (falling-asleep time)” value was found to be 13.
Regarding `COc1ccc2[nH]c3c(c(=O)c2c1)CN1C(=O)CCC(c2ccccc2)=C31` [Example 5], in assay [2] (1 μmol/kg), the “Mean duration of the state of consciousness: Consciousness” value was determined as 108.1 min, the “Mean duration of the state of consciousness: Drowsiness” value is 15.8 min, the “Mean duration: P.S. (paradoxal sleep)” value worked out at 2.6 min and the “Mean duration: Slow-wave sleep S1 + S2” value amounted to 23.4 min. Moreover, in assay [2] (1 μmol/kg), the “Mean duration: Total sleep” value amounted to 41.9 min, the “Mean latency time: Drowsiness” value turned out to be 51.7 min, the “Mean latency time: P.S. (paradoxal sleep)” value amounted to 110.7 min and the “Mean latency time: Slow-wave sleep S1” value was found to be 69.0 min. Also, in assay [2], the “Hypnotic power (in words)” value is listed as “marked hypnotic power”. Further, in assay [1] (0.87 μmol/100 g (3.12 mg/kg)), the “ST (sleeping time)” value was 36; the “Sedation time (after waking up, Stage 2)” value was 44; the “FAT (falling-asleep time)” value was 10.
In the case of `COc1ccc2[nH]c3c(c(=O)c2c1)CN(C(C)=O)C3C` (stereo not drawn) [Example 6, 2-Acetyl-7-methoxy-3-methyl-9-oxo-1,3,4,9-tetrahydropyrrolo[3,4-b]quinoline], in assay [1] (setting [5]), the “ST (sleeping time)” value came to 33; the “Sedation time (after waking up, Stage 2)” value is 27; the “FAT (falling-asleep time)” value was 15.
With `CCC1CCC(=O)N2Cc3c([nH]c4ccc(OC)cc4c3=O)C12` (stereo not drawn) [Example 9], in assay [1] (setting [4]), the “ST (sleeping time)” value was determined as 36; the “Sedation time (after waking up, Stage 2)” value came out at 44; the “FAT (falling-asleep time)” value amounted to 7.
On to `COc1ccc2c3c([nH]c2c1)C(C)=NCC3` [HARMALIN, harmaline], for which, in assay [1] (1.4 μmol/100 g (3 mg/kg)), the “ST (sleeping time)” value is 0 and the “Sedation time (after waking up, Stage 2)” value turned out to be 0.
For the compound `COc1ccc2[nH]cc(CCNC(C)=O)c2c1` [MELATONIN, melatonin], the “ST (sleeping time)” value in assay [1] (setting [3]), in assay [1] (setting [4]) and in assay [1] (setting [5]) was 0 throughout. For the same compound, the “Sedation time (after waking up, Stage 2)” value in assay [1] (setting [4]) is reported as 16-36; in assay [1] (setting [5]), 47-105. Besides, in assay [1] (administration during the daylight phase between 2.00 pm and 3.00 pm), the “Hypnotic activity (in words)” value is “no hypnotic activity”.
With `CCCC(C)C1(CC)C(=O)NC(=O)NC1=O` (stereo not drawn) [PENTOBARBITAL, pentobarbital sodium], in assay [1] (setting [3]), the “ST (sleeping time)” value turned out to be 0. Besides, in assay [1] (setting [4]), the “ST (sleeping time)” value was determined as 36 and the “FAT (falling-asleep time)” value came out at 13.
